13 compounds from US20190345138A1, “HETEROCYCLIC AMIDES AS KINASE INHIBITORS” (GlaxoSmithKline Intellectual Property Development Limited, priority 2016, published 2019) can be followed below.

The structures appear in SMILES notation. Values joined by “and” are separate entries in the source; they are usually repeats but may differ in a detail not shown here. Equal entries are not always repeated.

One experiment addresses T1, RIP1 kinase (Homo sapiens, UniProt Q13546).
T1 sequence (Q13546 1-375 limits assumed): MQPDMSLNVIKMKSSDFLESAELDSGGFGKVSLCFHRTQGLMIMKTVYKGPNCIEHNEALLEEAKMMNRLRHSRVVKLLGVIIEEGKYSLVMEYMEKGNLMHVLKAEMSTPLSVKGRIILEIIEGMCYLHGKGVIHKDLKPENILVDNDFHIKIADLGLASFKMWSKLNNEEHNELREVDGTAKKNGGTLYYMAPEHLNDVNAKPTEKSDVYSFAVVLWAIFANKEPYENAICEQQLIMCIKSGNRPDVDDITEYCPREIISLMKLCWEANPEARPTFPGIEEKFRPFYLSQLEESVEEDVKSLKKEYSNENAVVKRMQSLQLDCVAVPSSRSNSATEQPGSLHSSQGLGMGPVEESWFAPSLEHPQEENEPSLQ
Kind of experiment: fluorescent polarization based binding assay. Particulars: mean of a minimum of 2 experiments. The source says: A fluorescent polarization based binding assay was used to assess the activity of the compounds of this invention, the details of which are disclosed in International Patent Appln. No. PCT/IB2014/059004, now, International Patent Appln. Pub.

Experiment [1] has as its system human monocytic leukemia U937 cells. Kind of experiment: necroptosis assay in U937 cells. Particulars: Homo sapiens, U-937, U937 cells; viability by cellular ATP (Cell Titer-Glo); read-out: pIC50, inhibited necrosis in U937 cells (converted). Type of experiment: cell-based. Here is the method:
The efficacy of RIP1 inhibitors can be tested […] in vitro using a human monocytic leukemia U937 or mouse L929 fibrosarcoma cells in a necroptosis assay. As determined using the method described in S. He et al., Cell, 137(6):1100-1111 (2009) and International Patent Appln. No. PCT/IB2014/059004, now, International Patent Appln. Pub.
Viability was measured by quantitating cellular levels of ATP using the Cell Titer-Glo kit. All data are means±standard deviation of the mean.
(ATP-based viability assays read luminescence as a measure of living cells.)

Take `CSc1nccc(N2CCC(C(=O)N3N=CC[C@H]3c3ccccc3)CC2)n1` [Example 45, (S)-(1-(2-(methylthio)pyrimidin-4-yl)piperidin-4-yl)(5-phenyl-4,5-dihydro-1H-pyrazol-1-yl)methanone]: the IC50 is 1 to 31.6 nM and 1 to 10 nM at RIP1 kinase; 1 to 100 nM in experiment [1].

In the case of `O=C(C1CCN(c2ccnc(C(F)(F)F)n2)CC1)N1N=CC[C@H]1c1ccccc1` [Example 46, (S)-(5-phenyl-4,5-dihydro-1H-pyrazol-1-yl)(1-(2-(trifluoromethyl)pyrimidin-4-yl)piperidin-4-yl)methanone], the IC50 was 1 to 31.6 nM and 1 to 10 nM on RIP1 kinase; 1 to 100 nM in experiment [1].

Take `N#Cc1cncc(N2CCC(C(=O)N3N=CC[C@H]3c3ccccc3)CC2)n1` [Example 47, (S)-6-(4-(5-phenyl-4,5-dihydro-1H-pyrazole-1-carbonyl)piperidin-1-yl)pyrazine-2-carbonitrile]: the IC50 was 1 to 31.6 nM on RIP1 kinase and 1 to 100 nM in experiment [1].

As to `COc1cncc(N2CCC(C(=O)N3N=CC[C@H]3c3ccccc3)CC2)n1` [Example 48, (S)-(1-(6-methoxypyrazin-2-yl)piperidin-4-yl)(5-phenyl-4,5-dihydro-1H-pyrazol-1-yl)methanone], the IC50 on RIP1 kinase is 1 to 31.6 nM; in experiment [1] it was 1 to 100 nM.

As for `COc1ccc(N2CCC(C(=O)N3N=CC[C@H]3c3ccccc3)CC2)nn1` [Example 49, (S)-(1-(6-methoxypyridazin-3-yl)piperidin-4-yl)(5-phenyl-4,5-dihydro-1H-pyrazol-1-yl)methanone], the IC50 at RIP1 kinase was 1 to 31.6 nM; in experiment [1] it was 1 to 100 nM.

Consider `N#Cc1cncnc1N1CCC(C(=O)N2N=CC[C@H]2c2ccccc2)CC1` [Example 50, (S)-4-(4-(5-phenyl-4,5-dihydro-1H-pyrazole-1-carbonyl)piperidin-1-yl)pyrimidine-5-carbonitrile], for which the IC50 at RIP1 kinase was 1 to 31.6 nM and 1 to 10 nM; in experiment [1], 1 to 100 nM.

For the compound `O=C(C1CCN(c2cc(C(F)(F)F)ncn2)CC1)N1N=CC[C@H]1c1ccccc1` [Example 51, (S)-(5-phenyl-4,5-dihydro-1H-pyrazol-1-yl)(1-(6-(trifluoromethyl)pyrimidin-4-yl)piperidin-4-yl)methanone], the IC50 was 1 to 31.6 nM at RIP1 kinase and 1 to 100 nM in experiment [1].

For the compound `N#Cc1csc(N2CCC(C(=O)N3N=CC[C@H]3c3ccccc3)CC2)n1` [Example 53, (S)-2-(4-(5-phenyl-4,5-dihydro-1H-pyrazole-1-carbonyl)piperidin-1-yl)thiazole-4-carbonitrile], the IC50 on RIP1 kinase is 1 to 31.6 nM and 1 to 10 nM; in experiment [1], 1 to 100 nM.

On to `CNC(=O)c1csc(N2CCC(C(=O)N3N=CC[C@H]3c3ccccc3)CC2)n1` [Example 54, (S)-N-methyl-2-(4-(5-phenyl-4,5-dihydro-1H-pyrazole-1-carbonyl)piperidin-1-yl)thiazole-4-carboxamide], for which the IC50 on RIP1 kinase was 1 to 31.6 nM; in experiment [1], 1 to 100 nM.

As to `NC(=O)c1csc(N2CCC(C(=O)N3N=CC[C@H]3c3ccccc3)CC2)n1` [Example 56, (S)-2-(4-(5-phenyl-4,5-dihydro-1H-pyrazole-1-carbonyl)piperidin-1-yl)thiazole-4-carboxamide], the IC50 at RIP1 kinase was 1 to 31.6 nM; in experiment [1] it was 1 to 100 nM.

In the case of `O=C(C1CCN(c2nnc(-c3ccccc3)o2)CC1)N1N=CC[C@H]1c1ccccc1` [Example 57, (S)-(1-(5-phenyl-1,3,4-oxadiazol-2-yl)piperidin-4-yl)(5-phenyl-4,5-dihydro-1H-pyrazol-1-yl)methanone], the results for the IC50 (on RIP1 kinase; in experiment [1]) were 1 to 31.6 nM and 1 to 100 nM, respectively.

Regarding `CCOc1ccnc(N2CCC(C(=O)N3N=CC[C@H]3c3ccccc3)CC2)n1` [Example 58, (S)-(1-(4-ethoxypyrimidin-2-yl)piperidin-4-yl)(5-phenyl-4,5-dihydro-1H-pyrazol-1-yl)methanone], the IC50 was 1 to 31.6 nM and 1 to 10 nM at RIP1 kinase; 1 to 100 nM in experiment [1].

Take `CSc1cc(N2CCC(C(=O)N3N=CC[C@H]3c3ccccc3)CC2)ncn1` [Example 59, (S)-(1-(6-(methylthio)pyrimidin-4-yl)piperidin-4-yl)(5-phenyl-4,5-dihydro-1H-pyrazol-1-yl)methanone]: the IC50 at RIP1 kinase is 1 to 31.6 nM and 1 to 10 nM; in experiment [1] it was 1 to 100 nM.
